# Test results: ChEMBL document CHEMBL1158932, “Cytotoxic pyridone alkaloids from the leaves of Piper aborescens” (1990)
# Columns and labels:
# Assay type in all cases: functional
# KB = assay: Cytotoxicity against human KB cells after 3 days by MTT assay; settings: 72 h, read-out: ED50 (the source's name)
# P388 = assay: Cytotoxicity against mouse P388 cells after 3 days by MTT assay; settings: P388, 72 h, read-out: ED50 (the source's name)
# A549 = assay: Cytotoxicity against human A549 cells after 6 days by MTT assay; settings: A549, 144 h, read-out: ED50 (the source's name)
# HT-29 = assay: Cytotoxicity against human HT-29 cells after 6 days by MTT assay; settings: HT-29, 144 h, read-out: ED50 (the source's name)
structure (smiles),measurement,setting,value
COc1cc(CCC(=O)N2CCC=CC2=O)cc2c1OCO2,EC50,KB,4.99 µg/mL
same,EC50,P388,2.21 µg/mL
same,EC50,A549,5.76 µg/mL
same,EC50,HT-29,3.8 µg/mL
COc1cc(/C=C/C(=O)N2CCC=CC2=O)cc2c1OCO2,EC50,KB,2.62 µg/mL
same,EC50,P388,0.43 µg/mL
same,EC50,A549,2.57 µg/mL
same,EC50,HT-29,2.15 µg/mL
COc1cc(C2C(C(=O)N3CCC=CC3=O)[C@H](c3cc(OC)c(OC)c(OC)c3)[C@@H]2C(=O)N2CCC=CC2=O)cc(OC)c1OC (stereo partly specified) [PIPLARTINE DIMER A],EC50,KB,3.9 µg/mL
same,EC50,P388,3.06 µg/mL
same,EC50,A549,2.21 µg/mL
same,EC50,HT-29,2.49 µg/mL
COc1cc(/C=C/C(=O)N2CCC=CC2=O)cc(OC)c1OC [PIPLARTINE],EC50,KB,1.8 µg/mL
same,EC50,P388,0.9 µg/mL
same,EC50,A549,0.6 µg/mL
same,EC50,HT-29,0.45 µg/mL
